Experimental data taken from PubChem BioAssay (NCI).
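Briefly, cells in 96-well plates were exposed to five compound concentrations for 48 h, and endpoints were estimated by linear interpolation. GI50 is the concentration that inhibits growth by half. TGI: concentration producing complete growth inhibition.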

Assays:
Assay in all cases: NCI tumour cell line growth inhibition, 48 h
KM12 colon = system: KM12 colon
BT-549 breast = system: BT-549 breast
CAKI-1 renal = system: CAKI-1 renal
MDA-MB-231 breast = system: MDA-MB-231 breast
MOLT-4 leukemia = system: MOLT-4 leukemia
OVCAR-3 ovarian = system: OVCAR-3 ovarian
NCI-H226 lung = system: NCI-H226 lung
SR leukemia = system: SR leukemia
EKVX NSCLC = system: EKVX NSCLC
RPMI-8226 leukemia = system: RPMI-8226 leukemia
HS 578T breast = system: HS 578T breast
NCI/ADR-RES ovarian = system: NCI/ADR-RES ovarian
SNB-19 CNS = system: SNB-19 CNS
SK-MEL-28 melanoma = system: SK-MEL-28 melanoma
LOX IMVI melanoma = system: LOX IMVI melanoma
OVCAR-8 ovarian = system: OVCAR-8 ovarian
SNB-75 CNS = system: SNB-75 CNS
HOP-92 NSCLC = system: HOP-92 NSCLC
SK-MEL-5 melanoma = system: SK-MEL-5 melanoma
OVCAR-4 ovarian = system: OVCAR-4 ovarian
SF-295 CNS = system: SF-295 CNS
PC-3 prostate = system: PC-3 prostate
HCC-2998 colon = system: HCC-2998 colon
HL-60(TB) leukemia = system: HL-60(TB) leukemia
TK-10 renal = system: TK-10 renal
NCI-H460 lung = system: NCI-H460 lung
OVCAR-5 ovarian = system: OVCAR-5 ovarian
ACHN renal = system: ACHN renal
SF-268 CNS = system: SF-268 CNS
SF-539 CNS = system: SF-539 CNS
HT29 colon = system: HT29 colon
DU-145 prostate = system: DU-145 prostate
A498 renal = system: A498 renal
MCF7 breast = system: MCF7 breast
MDA-MB-435 = system: MDA-MB-435
U251 CNS = system: U251 CNS
NCI-H522 lung = system: NCI-H522 lung
K-562 leukemia = system: K-562 leukemia
UACC-257 melanoma = system: UACC-257 melanoma
NCI-H23 lung = system: NCI-H23 lung
CCRF-CEM leukemia = system: CCRF-CEM leukemia
MALME-3M melanoma = system: MALME-3M melanoma
UACC-62 melanoma = system: UACC-62 melanoma
UO-31 renal = system: UO-31 renal
IGROV1 ovarian = system: IGROV1 ovarian
HOP-62 NSCLC = system: HOP-62 NSCLC
SW-620 colon = system: SW-620 colon
HCT-116 colon = system: HCT-116 colon
COLO 205 colon = system: COLO 205 colon
M14 melanoma = system: M14 melanoma
A549 NSCLC = system: A549 NSCLC
SK-OV-3 ovarian = system: SK-OV-3 ovarian
HCT-15 colon = system: HCT-15 colon
SK-MEL-2 melanoma = system: SK-MEL-2 melanoma
T-47D breast = system: T-47D breast
SN12C renal = system: SN12C renal
786-0 renal = system: 786-0 renal

For `C/C(=C(\c1ccc(O)cc1)c1ccc(OCCN2CCCCCC2)cc1)c1ccc(Cl)cc1`, which GI50 (KM12 colon) is on record?
The GI50 was 3.37 µM.

What about the TGI (KM12 colon) of the same molecule?
The TGI was 9.28 µM.

What about the GI50 (BT-549 breast) of the same molecule?
Its GI50 is 6.12 µM.

What about the TGI (BT-549 breast) of the same molecule?
The TGI was 13 µM.

What about the GI50 (CAKI-1 renal) of the same molecule?
The GI50 was 5.39 µM.

And the TGI (CAKI-1 renal)?
The TGI was 11 µM.

What about the GI50 (MDA-MB-231 breast) of the same molecule?
The GI50 was 7.02 µM.

What about the TGI (MDA-MB-231 breast) of the same molecule?
Its TGI is 13.3 µM.

And the GI50 (MOLT-4 leukemia)?
The GI50 was 1.69 µM.

What about the TGI (MOLT-4 leukemia) of the same molecule?
Its TGI is 7.25 µM.

And the GI50 (OVCAR-3 ovarian)?
The GI50 was 6.11 µM.

What about the TGI (OVCAR-3 ovarian) of the same molecule?
The TGI was 12.1 µM.

What about the GI50 (NCI-H226 lung) of the same molecule?
The GI50 was 5.39 µM.

What about the TGI (NCI-H226 lung) of the same molecule?
The TGI was 12.2 µM.

And the GI50 (SR leukemia)?
Its GI50 is 1.28 µM.

And the TGI (SR leukemia)?
The TGI was 4.7 µM.

And the GI50 (EKVX NSCLC)?
The GI50 was 6.67 µM.

What about the TGI (EKVX NSCLC) of the same molecule?
Its TGI is 12.8 µM.

What about the GI50 (RPMI-8226 leukemia) of the same molecule?
Its GI50 is 1.86 µM.

And the TGI (RPMI-8226 leukemia)?
Its TGI is 31 µM.

What about the GI50 (HS 578T breast) of the same molecule?
The GI50 was 5.06 µM.

What about the TGI (HS 578T breast) of the same molecule?
The TGI was 14.1 µM.

What about the GI50 (NCI/ADR-RES ovarian) of the same molecule?
The GI50 was 5.57 µM.

What about the TGI (NCI/ADR-RES ovarian) of the same molecule?
Its TGI is 11.5 µM.

What about the GI50 (SNB-19 CNS) of the same molecule?
Its GI50 is 6.27 µM.

What about the TGI (SNB-19 CNS) of the same molecule?
The TGI was 12.3 µM.

What about the GI50 (SK-MEL-28 melanoma) of the same molecule?
The GI50 was 4.94 µM.

What about the TGI (SK-MEL-28 melanoma) of the same molecule?
Its TGI is 10.4 µM.

And the GI50 (LOX IMVI melanoma)?
Its GI50 is 1.66 µM.

What about the TGI (LOX IMVI melanoma) of the same molecule?
The TGI was 6.55 µM.

What about the GI50 (OVCAR-8 ovarian) of the same molecule?
The GI50 was 6.94 µM.

What about the TGI (OVCAR-8 ovarian) of the same molecule?
The TGI was 13.7 µM.

What about the GI50 (SNB-75 CNS) of the same molecule?
Its GI50 is 6.02 µM.

What about the TGI (SNB-75 CNS) of the same molecule?
The TGI was 12 µM.

And the GI50 (HOP-92 NSCLC)?
The GI50 was 2.07 µM.

And the TGI (HOP-92 NSCLC)?
The TGI was 9.62 µM.

What about the GI50 (SK-MEL-5 melanoma) of the same molecule?
Its GI50 is 6.48 µM.

And the TGI (SK-MEL-5 melanoma)?
Its TGI is 12.5 µM.

What about the GI50 (OVCAR-4 ovarian) of the same molecule?
Its GI50 is 4.83 µM.

And the TGI (OVCAR-4 ovarian)?
Its TGI is 10.6 µM.

What about the GI50 (SF-295 CNS) of the same molecule?
Its GI50 is 4.79 µM.

What about the TGI (SF-295 CNS) of the same molecule?
The TGI was 10.3 µM.

And the GI50 (PC-3 prostate)?
The GI50 was 2.8 µM.

What about the TGI (PC-3 prostate) of the same molecule?
Its TGI is 11.1 µM.

And the GI50 (HCC-2998 colon)?
The GI50 was 2.43 µM.

And the TGI (HCC-2998 colon)?
Its TGI is 8.05 µM.

And the GI50 (HL-60(TB) leukemia)?
The GI50 was 5.98 µM.

And the TGI (HL-60(TB) leukemia)?
Its TGI is 14.3 µM.

What about the GI50 (TK-10 renal) of the same molecule?
Its GI50 is 6.99 µM.

What about the TGI (TK-10 renal) of the same molecule?
The TGI was 14 µM.

What about the GI50 (NCI-H460 lung) of the same molecule?
The GI50 was 2.2 µM.

And the TGI (NCI-H460 lung)?
Its TGI is 7.27 µM.

And the GI50 (OVCAR-5 ovarian)?
Its GI50 is 5.78 µM.

What about the TGI (OVCAR-5 ovarian) of the same molecule?
The TGI was 11.5 µM.

And the GI50 (ACHN renal)?
The GI50 was 5.26 µM.

And the TGI (ACHN renal)?
Its TGI is 10.8 µM.

What about the GI50 (SF-268 CNS) of the same molecule?
The GI50 was 5.8 µM.

And the TGI (SF-268 CNS)?
Its TGI is 12.7 µM.

And the GI50 (SF-539 CNS)?
The GI50 was 4.67 µM.

What about the TGI (SF-539 CNS) of the same molecule?
The TGI was 10 µM.

And the GI50 (HT29 colon)?
Its GI50 is 1.26 µM.

And the TGI (HT29 colon)?
The TGI was 4.59 µM.

And the GI50 (DU-145 prostate)?
Its GI50 is 7.05 µM.

What about the TGI (DU-145 prostate) of the same molecule?
The TGI was 13.2 µM.

And the GI50 (A498 renal)?
The GI50 was 8.32 µM.

And the TGI (A498 renal)?
The TGI was 14.9 µM.

What about the GI50 (MCF7 breast) of the same molecule?
The GI50 was 0.0385 µM.

What about the TGI (MCF7 breast) of the same molecule?
The TGI was 3.81 µM.

What about the GI50 (MDA-MB-435) of the same molecule?
The GI50 was 5.36 µM.

And the TGI (MDA-MB-435)?
The TGI was 11.1 µM.

And the GI50 (U251 CNS)?
The GI50 was 3.28 µM.

What about the TGI (U251 CNS) of the same molecule?
The TGI was 13.4 µM.

What about the GI50 (NCI-H522 lung) of the same molecule?
Its GI50 is 7.43 µM.

What about the TGI (NCI-H522 lung) of the same molecule?
The TGI was 15 µM.

What about the GI50 (K-562 leukemia) of the same molecule?
Its GI50 is 1.32 µM.

What about the TGI (K-562 leukemia) of the same molecule?
Its TGI is 6.03 µM.

And the GI50 (UACC-257 melanoma)?
Its GI50 is 7.39 µM.

What about the TGI (UACC-257 melanoma) of the same molecule?
Its TGI is 14.8 µM.

What about the GI50 (NCI-H23 lung) of the same molecule?
Its GI50 is 5.52 µM.

And the TGI (NCI-H23 lung)?
Its TGI is 11.3 µM.

And the GI50 (CCRF-CEM leukemia)?
Its GI50 is 10.8 µM.

And the TGI (CCRF-CEM leukemia)?
The TGI was 45.8 µM.

And the GI50 (MALME-3M melanoma)?
Its GI50 is 4.52 µM.

What about the TGI (MALME-3M melanoma) of the same molecule?
Its TGI is 9.89 µM.

What about the GI50 (UACC-62 melanoma) of the same molecule?
The GI50 was 6.35 µM.

What about the TGI (UACC-62 melanoma) of the same molecule?
The TGI was 12.4 µM.

And the GI50 (UO-31 renal)?
Its GI50 is 4.53 µM.

What about the TGI (UO-31 renal) of the same molecule?
The TGI was 9.88 µM.

What about the GI50 (IGROV1 ovarian) of the same molecule?
Its GI50 is 5.79 µM.

And the TGI (IGROV1 ovarian)?
Its TGI is 11.9 µM.

What about the GI50 (HOP-62 NSCLC) of the same molecule?
The GI50 was 7.03 µM.

What about the TGI (HOP-62 NSCLC) of the same molecule?
Its TGI is 15.7 µM.

And the GI50 (SW-620 colon)?
Its GI50 is 3.17 µM.

What about the TGI (SW-620 colon) of the same molecule?
The TGI was 9.28 µM.

What about the GI50 (HCT-116 colon) of the same molecule?
The GI50 was 2.21 µM.

And the TGI (HCT-116 colon)?
Its TGI is 9.11 µM.

What about the GI50 (COLO 205 colon) of the same molecule?
The GI50 was 1.21 µM.

And the TGI (COLO 205 colon)?
Its TGI is 2.99 µM.

And the GI50 (M14 melanoma)?
Its GI50 is 1.6 µM.

And the TGI (M14 melanoma)?
Its TGI is 6.17 µM.

What about the GI50 (A549 NSCLC) of the same molecule?
The GI50 was 6.27 µM.

What about the TGI (A549 NSCLC) of the same molecule?
The TGI was 18.4 µM.

And the GI50 (SK-OV-3 ovarian)?
The GI50 was 7.74 µM.

And the TGI (SK-OV-3 ovarian)?
Its TGI is 15 µM.

And the GI50 (HCT-15 colon)?
The GI50 was 1.26 µM.

And the TGI (HCT-15 colon)?
Its TGI is 3.95 µM.

What about the GI50 (SK-MEL-2 melanoma) of the same molecule?
The GI50 was 7.59 µM.

What about the TGI (SK-MEL-2 melanoma) of the same molecule?
Its TGI is 14.5 µM.

And the GI50 (T-47D breast)?
Its GI50 is 1.19 µM.

And the TGI (T-47D breast)?
The TGI was 11.1 µM.

What about the GI50 (SN12C renal) of the same molecule?
The GI50 was 5.86 µM.

And the TGI (SN12C renal)?
The TGI was 11.9 µM.

And the GI50 (786-0 renal)?
The GI50 was 2.15 µM.

What about the TGI (786-0 renal) of the same molecule?
Its TGI is 8.4 µM.
